Experimental data published in patent US11571459B2, “Methods for treating cancer using PS-targeting antibodies with immuno-oncology agents” (ONCXERNA THERAPEUTICS, INC., priority 2017, dated 2023).

Experiments:
[1] = test system: previously-treated Stage IIIb/IV non-squamous NSCLC; assay: Phase III trial of bavituximab plus docetaxel in NSCLC
From the text: (§1) This global, double-blind Phase III trial was initiated in 2012. Selection criteria were for patients with Stage IIIb/IV non-squamous NSCLC who progressed on platinum-doublet chemotherapy (should have progressed on appropriate targeted therapy if known EGFR or ALK mutation), with ECOG PS 0-1 and prior immunotherapy allowed (ECOG is the performance status scale defined by the Eastern Cooperative Oncology Group). […] The primary endpoint was overall survival (OS) and secondary endpoints included objective response rate (Independent Central Review, ICR), progression-free survival (ICR), safety, PK, Quality of Life (LCSS) and exploratory biomarkers, including immune correlates.
(§2) OS was analyzed by VeriStrat subgroups using Kaplan-Meier statistical methods.
(§3) A single cutoff method was first used to assess the patient β2GPI data.
(§4) The initial analyses described above prompted further, extensive analyses of the data in 592 evaluable patients. These analyses used a two cutoff method (Klein & Moeschberger, 2003).
(§5) Archival tissue obtained at the time of diagnosis was requested, but not required, in the Phase III trial of Example X. Formalin-fixed paraffin-embedded (FFPE) slides were stained with antibodies for a panel of lymphoid (or tumor) cell markers, as described in Feng et al., 2015: CD3+, CD8+, FoxP3+, PD-L1+, CD163+ and CK+ (cytokeratin, an epithelial carcinoma marker) using a mutliplex (6-plex) quantitative immunohistochemistry (IHC) assay (OPAL®, PerkinElmer, Waltham, Mass., USA) and using DAPI. The PD-L1 antibody used was the rabbit anti-PD-L1 antibody termed E1L3N® XP® (Cell Signaling Technology, (CST), Danvers, Mass., Catalogue #13684; Mahoney et al., 2015). Baseline PD-L1 expression was retrospectively scored on tumor cells (TC, i.e., CK+) and PD-L1 expressing tumor cells were classified according to their percentage within the total number of tumor cells using established assays and classifications (Fehrenbacher et al., 2016), as follows: TC3≥50%; TC2≥5% and ≤50%; TC1≥1% and <5%; and TC0<1%. Cox regression models for PD-L1 IHC subgroup populations were used for correlation with OS.
(§6) Kaplan-Meier statistical methods and Cox proportional hazard models were utilized to evaluate and contrast the correlation of peripheral (and intratumoral) IFNγ levels with OS based on a data cut from the Phase III trial (Example X) dated Feb.

[2] = test system: previously-treated Stage IIIb/IV non-squamous NSCLC; conditions: in vivo
From the text: as §1, §2, §3, §4, §5, §6

[3] = test system: previously treated non-squamous NSCLC
Method: The primary objective of this study was to compare the ORR (CR+PR) among the treatment arms. Secondary objectives included comparing PFS, DR, OS, safety and PK.
Additional blood draws were performed for these patients during Cycles 1 and 2 at specified time points.
Samples from the NSCLC Phase II trial of Example IX (PPHM 0902) were tested using the functional β2GPI assay of Example XII.

[4] = test system: tumors; conditions: syngeneic and xenogeneic tumor models; cited from earlier work
[5] = test system: PS; assay: ELISA binding to PS-coated plates; conditions: phospholipid-coated ELISA plates
Method: The 3G4 antibody was produced by immunizing mice with autologous, PS-positive endothelial cells, as reported in Ran et al., 2005. The 3G4 antibody was tested for binding to PS in a standard ELISA in the presence and absence of serum, and was initially characterized as being “serum-independent”, i.e., an antibody that binds to PS in the absence of serum.
In a follow-on study, the binding of the 2aG4 antibody to PS was tested in an ELISA in the presence of varying concentrations of human β2GPI.
These included binding to PS in ELISAs, FACS analyses using PS-positive cells and functional assays in the form of an NFAT surrogate ADCC bioassay (Larson et al., 2013).

[6] = test system: ABAE cells with exposed PS; assay: Binding of antibody-β2GPI complexes to PS on cells; format: cell-based; conditions: first study
Method: In analyzing the β2GPI levels required for binding of 3G4-β2GPI complexes to PS on cells, the maximum relative binding in a first study occurred at an antibody concentration of 80 nM, which is a β2GPI to antibody ratio of only 0.5.

[7] = biological target: T1, β2GPI (Homo sapiens, UniProt P02749); assay: Antibody binding to β2GPI (domain mapping)
T1 sequence (P02749 20-345): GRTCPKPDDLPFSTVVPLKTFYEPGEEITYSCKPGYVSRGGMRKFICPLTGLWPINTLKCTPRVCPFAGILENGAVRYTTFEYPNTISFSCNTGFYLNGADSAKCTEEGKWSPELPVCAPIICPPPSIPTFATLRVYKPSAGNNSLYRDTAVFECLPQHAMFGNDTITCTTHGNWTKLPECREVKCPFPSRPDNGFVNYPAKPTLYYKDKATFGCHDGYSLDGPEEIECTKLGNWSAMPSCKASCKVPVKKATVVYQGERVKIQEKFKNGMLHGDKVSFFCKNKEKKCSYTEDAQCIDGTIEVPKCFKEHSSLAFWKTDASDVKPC
From the text: In summary, it was shown that the 3G4 antibody binds to β2GPI at domain II and that the lipid binding region of β2GPI domain V is required for co-binding of 3G4 (and ch3G4) and β2GPI to PS exposed on cells. […] Accordingly, antibody and β2GPI co-bind to PS exposed on the outer surfaces of membranes, such as occurs on activated endothelial cells, tumor vascular endothelial cells and tumor cells, as well as on virally infected cells.

[8] = irrespective of the presence of serum; cited from earlier work
[9] = ELISA binding to neutral phospholipids; conditions: standard ELISA
[10] = test system: PS; conditions: in the presence of serum; cited from earlier work
[11] = 70% of targeted OS events reached
[12] = about 85% of targeted OS events
[13] = about 85% of targeted OS events, vs docetaxel alone
[14] = functional β2GPI ≥200 μg/mL, 578 evaluable patients
[15] = functional β2GPI ≥200 μg/mL, 592 evaluable patients

bavituximab plus docetaxel: treatment arm: weekly 3 mg/kg bavituximab in combination with docetaxel
median OS ([1]; 12 months follow-up, about 85% of targeted OS events): 10.5 months
mOS [1, 11]: 10.7 months
median PFS [1, 11]: 4.1 months
mOS ([1]; IFNγ high, no subsequent IO): 9.0 months
HR ([1]; IFNγ high, no subsequent IO, vs docetaxel alone): 1.14
mOS ([1]; IFNγ high, received subsequent IO): 13.9 months
HR ([1]; IFNγ high, received subsequent IO, vs docetaxel alone): 1.0
mOS ([1]; IFNγ low, no subsequent IO): 10.5 months
HR ([1]; IFNγ low, no subsequent IO, vs docetaxel alone): 1.17
mOS ([1]; IFNγ low, received subsequent IO): not reached
HR ([1]; IFNγ low, received subsequent IO, vs docetaxel alone): 0.24
mOS ([1]; VS Good patients (VeriStrat)): 11.2 months
mOS ([1]; VS Poor patients (VeriStrat)): 5.8 months
ORR [1, 12]: 15%
PFS [1, 12]: 4.2 months
HR for OS [1, 13]: 1.06
HR for PFS [1, 13]: 1.02
HR for death ([1]; functional β2GPI 200-240 μg/mL): 0.67
improvement in mOS versus control group ([1]; functional β2GPI 200-240 μg/mL): 5.5 month
mOS ([1]; functional β2GPI 200-240 μg/mL): 13.2 months
HR for death [1, 14]: 0.77
mOS [1, 14]: 11.9 months
HR for death [1, 15]: 0.81
mOS [1, 15]: 11.9 months
mOS ([1]; higher PD-L1 expression (TC1/2/3, ≥1%)): 6.0 months
HR, PD-L1 TC0 versus TC1/2/3 within arm ([1]; in vivo): 0.38
mOS ([1]; negative PD-L1 expression (TC0, <1%)): 11.5 months
HR ([1]; no subsequent IO, vs docetaxel alone): 1.16
mOS ([1]; patients receiving subsequent IO): has yet to be reached
HR ([1]; patients receiving subsequent IO, vs docetaxel alone): 0.46
mOS ([1]; patients who did not receive subsequent IO): 9.2 months
mOS ([1]; pre-treatment serum IFNγ high (≥ median 0.093 μg/mL)): 9.2 months
mOS ([1]; pre-treatment serum IFNγ low (< median 0.093 μg/mL)): 11.9 months
Grade 3 or higher adverse events [2]: 68%
HR for OS versus combined arm ([3]; 3 mg/kg): 0.66
Overall Survival, Median ([3]; ITT, all with docetaxel, Bavituximab arm 3 mg/kg): 11.7 Months
Grade 5 (fatal) events ([3]; bavituximab 3 mg/kg, combined control = placebo or 1 mg/kg bavituximab, all with docetaxel): 5.0%

B1: 3G4: mouse IgG3 monoclonal PS-targeting antibody, hybridoma ATCC PTA 4545 (antibody, V domains shown)
VH: EVQLQQSGPELEKPGASVKLSCKASGYSFTGYNMNWVKQSHGKSLEWIGHIDPYYGDTSYNQKFRGKATLTVDKSSSTAYMQLKSLTSEDSAVYYCVKGGYYGHWYFDVWGAGTTVTVSSATTTAPSVYPLVP
VL: DIQMTQSPSSLSASLGERVSLTCRASQDIGSSLNWLQQGPDGTIKRLIYATSSLDSGVPKRFSGSRSGSDYSLTISSLESEDFVDYYCLQYVSSPPTFGAGTKLELKRADAAPTVFIFGRIP
anti-tumor effects [4]: caused tumor vascular injury, localized thrombosis, tumor necrosis and retarded tumor growth
toxicity [4]: no evidence of toxicity
binding to phospholipids in standard ELISA [5]: bound to PS, CL, PI (phosphatidylinositol), PA (phosphatidic acid) and PG (phosphatidylglycerol)
antibody concentration at maximum relative binding to PS on cells [6]: 80 nM
molar ratio of β2GPI to antibody for optimal antibody binding [6]: between 0.125, 0.5 and 2
β2GPI to antibody ratio at maximum relative binding ([6]; antibody 80 nM): 0.5
β2GPI domain bound [7]: bind to β2GPI at domain II
binding to neutral phospholipids PC, SM or PE [8]: no detectable binding
reaction with neutral phospholipids, PC and SM [9]: did not react
binding to anionic phospholipids (PS, PI, PA, PG, CL) [10]: bind strongly to anionic phospholipids
